Experimental findings from patent US5753664A, “Heterocyclic compounds, their production and use” (Takeda Chemical Industries, Ltd., priority 1995, dated 1998) are described below.

pIC50: −log10 of the molar value. Counter-ions that a name gives are not always drawn.

For the first experiment, the system named is Prostate carcinoma cell line PC-3. The experiment can be described thus: In vitro prostate carcinoma cell proliferation inhibition assay (MTT). Type of experiment: cell-based, human. The following applies: Homo sapiens, 72 h, read-out: IC50 PC-3. As for the experimental part:
In vitro prostate carcinoma cell proliferation inhibition assay
Prostate carcinoma cell line PC-3 cells were suspended in Ham's F-12K medium (Flow Laboratories or Dainippon Pharmaceutical Co,. Ltd) supplemented with 10% fetal calf serum, and seeded in a 96-well microtiter plate (5000 cells/50 or 75 μl/well). The plate was then incubated in a 5% CO2 incubator at 37° C. On the following day, a 3-fold dilution series with the medium with serum of the test compound in N,N-dimethylformamide (DMF) (50 or 25 μl/well) were added (final volume […]) and the plate was incubated for another 3 days. Following addition of a thiazolyl-tetrazolium (MTT) solution, absorbance based on the viable cell number was determined "Tada et al., Journal of Immunological Methods, 93, 157 (1986)". With the estimated cell number in the control group to which the test compound solution was not added being taken as 100%, the percentage of the estimated cell number in each test group was determined and the concentration (IC50 value) of the test compound which was required for 50% inhibition of the estimated viable cell number in the control group was calculated.
Broadly, the pIC50 is −log10 of the IC50, conventionally taken in molar units. Regarding `Cc1cccc2nc(SCc3ccc(C(=O)c4ccc(OC(=O)N(C)C)cc4)cc3)n(C)c(=O)c12` [Example 228, 3,5-Dimethyl-2-[4-[4-(N,N-dimethylcarbamoyloxy)-benzoyl]benzylthio]-4(3H)-quinazolinone], the pIC50 was 8.15.

The same experiment, now with this note: Homo sapiens, 72 h; PC-3, 3 days incubation, MTT; read-out: IC50 PC-3.
Turning to `CCn1cnc2c(c(C)cn2Cc2ccc(C(=O)c3ccc(Cl)cc3)cc2)c1=O` [Example 96, 7-[4-(4-Chlorobenzoyl)benzyl]-3-ethyl-5-methyl-7H-pyrrolo [2,3-d]pyrimidin-4(3H)-one], the negative-log IC50 (pIC50) was above 8.82.
On the same count and under the same terms, the figure for `Cc1cccc2nc(SCc3ccc(C(=O)c4ccc(CSc5nnnn5CCN(C)C)cc4)cc3)n(C)c(=O)c12` [Example 138, 3,5-Dimethyl-2-[4-[4-[[1-(2-dimethylaminoethyl)-1H-tetrazol-5-yl]thiomethyl]benzoyl]benzylthio]-4(3H)-quinazolinone] is above 8.82.
Still for that read-out and setting: the figure for `CC(C)(C)n1ncc2c(cnn2Cc2ccc(C(=O)c3ccc(Cl)cc3)cc2)c1=O` [62(A), 5-Tert-butyl-1-[4-(4-chlorobenzoyl)benzyl]-1H-pyrazolo[3,4-d]pyridazin-4(5H)-one] is above 8.82.
Turning to `Cc1cn(C)c2nc(SC(C)c3ccc(C(=O)c4ccc(F)cc4)cc3)n(C)c(=O)c12` (centres unmarked) [57(B), 2-[1-[4-(4-Fluorobenzoyl)phenyl]ethyl]thio-3,5,7-trimethyl-7H-pyrrolo[2,3-d]pyrimidin-4(3H)-one], the pIC50 is 8.05.
Same read-out and setting: the figure for `Cc1cccc2nc(SCc3ccc(C(=O)c4ccc(C(=O)N5CCC(N6CCCCC6)CC5)cc4)cc3)n(C)c(=O)c12` [Example 193, 3,5-Dimethyl-2-[4-[4-(4-piperidinopiperidinocarbonyl)benzoyl]benzyl]thio-4(3H)-quinazolinone] is 8.70; for `Cn1ncc2c(c(Cl)c(Cl)n2Cc2ccc(C(=O)c3ccc(F)cc3)cc2)c1=O` [Example 66, 1-[4-(4-Fluorobenzoyl)benzyl]-2,3-dichloro-5-methyl-1H-pyrrolo [2,3-d]pyridazin-4(5H)-one] it is 8.10; for `Cc1nc2n(Cc3ccc(C(=O)c4ccc(Cl)cc4)cc3)ccn2c(=O)c1C(C)C` [Example 181, 1-[4-(4-Chlorobenzoyl)benzyl]-6-isopropyl-7-methylimidazo[1,2-a]pyrimidin-5(1H)-one] it is 8.52.
`CCn1c(SC)nc2c(ccn2Cc2ccc(C(=O)c3ccc(Cl)cc3)cc2)c1=O` [Example 252, 7-[4-(4-Chlorobenzoyl)benzyl]-3-ethyl-2-methylthio-7H-pyrrolo[2,3-d]pyrimidin-4-one]: the pIC50 is above 8.82.
Regarding `Cc1cccc2nc(SCc3ccc(C(=O)c4ccc(OCC(=O)c5ccccc5)cc4)cc3)n(C)c(=O)c12` [Example 234, 3,5-Dimethyl-2-[4-(4-phenacyloxybenzoyl)benzylthio]-4-(3H)-quinazolinone], the pIC50 was 8.15.
As to `Cc1cccc2nc(SCc3ccc(C(=O)c4ccc(CN5CCN(C)CC5)cc4)cc3)n(C)c(=O)c12` [Example 144, 3,5-Dimethyl-2-[4-[4-(4-methylpiperazinylmethyl)benzoyl]benzylthio]-4(3H)-quinazolinone], the pIC50 is above 8.82.
Same read-out and setting: the figure for `Cc1ccc(C(=O)c2ccc(COc3nc4n(c(=O)c3C)CCCS4)cc2)cc1` [Example 406, 7-Methyl-8-[4-(4-methylbenzoyl)benzyloxy]-3,4-dihydro-2H,6H-pyrimido[2,1-b][1,3]thiazin-6-one] is 9.03.
Still for that read-out and setting: next, `Cc1c[nH]c2nc(SCc3ccc(C(=O)c4ccc(Cl)cc4)cc3)[nH]c(=O)c12` [Example 50, 2-[4-(4-Chlorobenzoyl)benzyl]thio-5-methyl-7H-pyrrolo[2,3-d]pyrimidin-4(3H)-one]: 8.05.
In the case of `CCn1c(SC)nc2c(cnn2Cc2ccc(C(=O)c3ccc(OC)cc3)cc2)c1=O` [132(A), 5-Ethyl-1-[4-(4-methoxybenzoyl)benzyl]-6-methylthio-1,5-dihydro-4H-pyrazolo[3,4-d]pyrimidin-4-one], the pIC50 was 8.70.
Regarding `Cc1csc2nc(SCc3ccc(C(=O)c4ccc(OCCN5CCOCC5)cc4)cc3)n(C)c(=O)c12` [Example 148, 3,5-Dimethyl-2-[4-[4-(2-morpholinoethoxy)benzoyl]-benzylthio]thieno[2,3-d]pyrimidin-4(3H)-one], the negative-log IC50 (pIC50) was above 8.82.
Same read-out and setting: the figure for `CCc1cccc2nc(SCc3ccc(C(=O)c4ccc(Cl)cc4)cc3)n(C)c(=O)c12` [Example 214, 2-[4-(4-Chlorobenzoyl)benzyl]thio-5-ethyl-3-methyl-4(3H)-quinazolinone] is 8.28; for `Cc1cn(C)c2nc(SCc3ccc(C(=O)c4ccc(F)cc4)cc3)n(C)c(=O)c12` [57(A), 2-[4-(4-Fluorobenzoyl)benzyl]thio-3,5,7-trimethyl-7H-pyrrolo[2,3-d]pyrimidin-4(3H)-one] it is 8.30; for `Cn1c(SCc2ccc(C(=O)c3ccc(N4CCC(N5CCCCC5)CC4)nc3)cc2)nc2ccsc2c1=O` [Example 158, 3-Methyl-2-[4-[6-(4-piperidinopiperidinyl)nicotinoyl]benzylthio]thieno[3,2-d]pyrimidin-4(3H)-one hydrochloride] it is 8.35.
On the same count and under the same terms, next, `Cc1c(OCc2ccc(C(=O)c3ccc(C(F)(F)F)cc3)cc2)nc2ccccn2c1=O` [Example 124, 3-Methyl-2-[4-(4-trifluoromethylbenzoyl)benzyloxy]pyrido[1,2-a]pyrimidin-4-one]: 8.10; `Cc1nn(Cc2ccc(C(=O)c3ccc(Cl)cc3)cc2)c2cnn(C)c(=O)c12` [84(A), 1-[4-(4-Chlorobenzoyl)benzyl]-3,5-dimethyl-1H-pyrazolo [3,4-d]pyridazin-4(5H)-one]: 8.70; `Cc1cccc2nc(SCc3ccc(C(=O)c4ccc(C(=O)N5CCN(C)CC5)cc4)cc3)n(C)c(=O)c12` [Example 184, 3,5-Dimethyl-2-[4-[4-(4-methylpiperazinocarbonyl)benzoyl]benzyl]thio-4(3H)-quinazolinone]: above 8.82.
`Cc1cn(C)c2nc(SCc3ccc(C(=O)c4ccc(Cl)cc4)cc3)n(C)c(=O)c12` [Example 55, 2-[4-(4-Chlorobenzoyl)benzyl]thio-3,5,7-trimethyl-7H-pyrrolo[2,3-d]pyrimidin-4(3H)-one]: the negative logarithm of the IC50 (pIC50) is above 8.82.
On the same count and under the same terms, the figure for `CCc1c(C)nc2n(Cc3ccc(C(=O)c4ccc(Cl)cc4)cc3)ccn2c1=O` [Example 169, 1-[4-(4-Chlorobenzoyl)benzyl]-6-ethyl-7-methylimidazo[1,2-a]pyrimidin-5(1H)-one] is above 8.82; for `CCn1c(SC)nc2c(cnn2Cc2ccc(C(=O)c3ccc(Cl)cc3)cc2)c1=O` [129(A)] it is above 8.82; for `Cc1c(SCc2ccc(C(=O)c3ccc(C(F)(F)F)cc3)cc2)nc2n(c1=O)CCCS2` [Example 365, 3,4-Dihydro-7-methyl-8-(4-(4-trifluoromethylbenzoyl)benzylthio)-2H,6H-pyrimido[2,1-b][1,4]thiazin-6-one] it is 8.21.
Still for that read-out and setting: the figure for `Cn1ncc2c(c(Cl)c(Cl)n2Cc2ccc(C(=O)c3ccc(Cl)cc3)cc2)c1=O` [Example 37, 1-[4-(4-Chlorobenzoyl)benzyl]-2,3-dichloro-5-methyl-1H-pyrrolo[2,3-d]pyridazin-4(5H)-one] is 8.22; for `O=C(c1ccc(Cn2ccn3c(=O)c4c(nc23)CCCC4)cc1)c1ccc(C(F)(F)F)cc1` [Example 329, 1-[4-(4-Trifluorobenzoyl)benzyl]-6,7,8,9-tetrahydroimidazo[2,1-b]quinazolin-5(1H)-one] it is 8.59; for `Cc1cn(Cc2ccc(C(=O)c3ccc(Cl)cc3)cc2)c2ncn(C)c(=O)c12` [Example 94, 7-[4-(4-Chlorobenzoyl)benzyl]-3,5-dimethyl-7H-pyrrolo [2,3-d]pyrimidin-4(3H)-one] it is 8.70.

The same experiment, now with this note: PC-3, 3 days incubation, MTT; read-out: IC50 PC-3.
For `CCOP(=O)(OCC)Oc1ccc(C(=O)c2ccc(CSc3nc4cccc(C)c4c(=O)n3C)cc2)cc1` [Example 217, 2-[4-(4-Diethylphosphonooxybenzoyl)benzylthio]-3,5-dimethyl-4(3H)-quinazolinone], the negative-log IC50 (pIC50) was above 8.82.
